{"source": "patent US5087639A", "about": "“Preventing CNS toxicity of acivicin when used with four large neutral amino acids” (The Upjohn Company, priority 1988, dated 1992)", "key": {"cancer patients [1]": {"test_system": "cancer patients", "conditions": "cited from earlier work"}, "[2]": {"assay": "Plasma pharmacokinetics of acivicin in cats with concomitant infusion", "conditions": "cat, in vivo, ip, 60 mg/kg, mean ± s.d.; for Vd/F: read-out: Varea", "description": "Blood was sampled through the blood sampling cannula at -4.0, 0, +4, +6, +9, +12, +18, +24 and +30 hours relative to the acivicin dose, for determination of acivicin concentration by microbiological assay."}, "cancer patients [3]": {"test_system": "cancer patients", "conditions": "clinical trials conducted to date; cited from earlier work"}, "Acivicin-Treated Cats": {"test_system": "Acivicin-Treated Cats", "assay": "Incidence of toxic symptoms (mydriasis, vomiting, sedation, ataxia) in acivicin-treated cats with concomitant infusion"}, "tumor cell": {"test_system": "tumor cell", "conditions": "laboratory data; cited from earlier work"}, "[4]": {"conditions": "acivicin 60 mg/kg i.p. plus infusion of the named solution, label Acivicin = saline infusion, affected/treated cats"}}, "note": "Like-named read-outs stand apart in the source and are kept apart here.", "data": [{"smiles": "N[C@H](C(=O)O)[C@@H]1CC(Cl)=NO1", "note": "[Acivicin, (αS,5S)-α-amino-3-chloro-2-isoxazoline-5-acetic acid]", "values": [{"measurement": "CNS effects in humans", "setting": "cancer patients [1]; dose-limiting", "value": "reversible, dose-limiting CNS effects such as sedation, ataxia, personality changes and hallucinations"}, {"measurement": "dose-limiting toxicity", "setting": "cancer patients [1]; previous Phase I and II trials", "value": "neurotoxicity which is dose-dependent and reversible"}, {"measurement": "CL/F", "setting": "[2]; Aminosyn infusion, n=2", "value": 1.83, "unit": "mL/min/kg"}, {"measurement": "half-life", "setting": "[2]; Aminosyn infusion, n=2", "value": "4.3 ± 0.7", "unit": "h"}, {"measurement": "k el", "setting": "[2]; Aminosyn infusion, n=2", "value": "4.44e-05", "unit": "s⁻¹"}, {"measurement": "Vd/F", "setting": "[2]; Aminosyn infusion, n=2", "value": "0.684 ± 0.064", "unit": "L/kg"}, {"measurement": "CL/F", "setting": "[2]; LNAA infusion, n=3", "value": 1.05, "unit": "mL/min/kg"}, {"measurement": "half-life", "setting": "[2]; LNAA infusion, n=3", "value": "8.3 ± 0.8", "unit": "h"}, {"measurement": "k el", "setting": "[2]; LNAA infusion, n=3", "value": "2.33e-05", "unit": "s⁻¹"}, {"measurement": "Vd/F", "setting": "[2]; LNAA infusion, n=3", "value": "0.75 ± 0.081", "unit": "L/kg"}, {"measurement": "CL/F", "setting": "[2]; OAA infusion, n=3", "value": 1.28, "unit": "mL/min/kg"}, {"measurement": "half-life", "setting": "[2]; OAA infusion, n=3", "value": "7.4 ± 1.06", "unit": "h"}, {"measurement": "k el", "setting": "[2]; OAA infusion, n=3", "value": "2.64e-05", "unit": "s⁻¹"}, {"measurement": "Vd/F", "setting": "[2]; OAA infusion, n=3", "value": "0.814 ± 0.061", "unit": "L/kg"}, {"measurement": "CL/F", "setting": "[2]; Saline infusion, n=3", "value": 1.28, "unit": "mL/min/kg"}, {"measurement": "half-life", "setting": "[2]; Saline infusion, n=3", "value": "8.4 ± 2.5", "unit": "h"}, {"measurement": "k el", "setting": "[2]; Saline infusion, n=3", "value": "2.42e-05", "unit": "s⁻¹"}, {"measurement": "Vd/F", "setting": "[2]; Saline infusion, n=3", "value": "0.893 ± 0.143", "unit": "L/kg"}, {"measurement": "CL/F", "setting": "[2]; second line \"aminosyn\", n=4", "value": 0.918, "unit": "mL/min/kg"}, {"measurement": "half-life", "setting": "[2]; second line \"aminosyn\", n=4", "value": "8.18 ± 1.36", "unit": "h"}, {"measurement": "k el", "setting": "[2]; second line \"aminosyn\", n=4", "value": "2.58e-05", "unit": "s⁻¹"}, {"measurement": "Vd/F", "setting": "[2]; second line \"aminosyn\", n=4", "value": "0.625 ± 0.0123", "unit": "L/kg"}, {"measurement": "CL/F", "setting": "[2]; second line \"saline\", n=4", "value": 1.85, "unit": "mL/min/kg"}, {"measurement": "half-life", "setting": "[2]; second line \"saline\", n=4", "value": "2.6 ± 0.41", "unit": "h"}, {"measurement": "k el", "setting": "[2]; second line \"saline\", n=4", "value": "7.64e-05", "unit": "s⁻¹"}, {"measurement": "Vd/F", "setting": "[2]; second line \"saline\", n=4", "value": "0.408 ± 0.0331", "unit": "L/kg"}, {"measurement": "efficacy in clinical trials", "setting": "cancer patients [3]", "value": "marginal"}, {"measurement": "incidence of ataxia", "setting": "Acivicin-Treated Cats; [4]", "value": "4/4"}, {"measurement": "incidence of mydriasis", "setting": "Acivicin-Treated Cats; [4]", "value": "4/4"}, {"measurement": "incidence of sedation", "setting": "Acivicin-Treated Cats; [4]", "value": "4/4"}, {"measurement": "incidence of vomiting", "setting": "Acivicin-Treated Cats; [4]", "value": "1/4"}, {"measurement": "ataxia and sedation (in words)", "setting": "Acivicin-Treated Cats; acivicin-treated cats, label Acivicin = saline-treated", "value": "both ataxic sedated"}, {"measurement": "dependence of cytotoxicity on tumor cell exposure concentration and duration", "setting": "tumor cell", "value": "strong dependence"}]}]}
